# According to paper PMC10518257 (Nature Cancer, 2023):
# Where “and” joins values, the source holds several entries; their conditions need not be identical. Equal values may be shown once.
# Assays:
# ECLC5B cells = experiment: Growth inhibition (alamarBlue, 96 h); format: cell-based, human; conditions: for raw viability signal (Source Data Fig. 3b-c): ECLC5B, replicates
# TT cells = experiment: Growth inhibition (alamarBlue, 96 h); format: cell-based, human; conditions: for raw viability signal (Source Data Fig. 3b-c): replicate sets
# [1] = system: Ba/F3 KIF5B–RET^G810R allograft tumors; experiment: Subcutaneous allograft efficacy study; format: in vivo, BALB/c nude mice; conditions: in mm³ (unit assumed);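 note: mean tumor volume per dosing group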
# [2] = system: ECLC5 luciferase cells implanted intracranially; experiment: Intracranial efficacy study; format: in vivo, NSG mice; conditions: for Luminescence Data: Fig. 8e ECLC5 intracranial, individual animals
# LUAD-0087AS2 PDX = experiment: PDX efficacy study; conditions: for Tumor volume: LUAD-0087AS2, selpercatinib group 30 mg/kg BID, individual animals
# [3] = Transcellular transport study, apparent permeability; conditions: pig, LLC-PK1
# [4] = Homo sapiens, 96 h, read-out: IC50 for Inhibition of Growth (95% CI)
smiles,measurement,setting,value
COc1ccc(CN2C3CC2CN(c2ccc(-c4cc(OCC(C)(C)O)cn5ncc(C#N)c45)cn2)C3)cn1 [Selpercatinib],raw viability signal (Source Data Fig. 3b-c),ECLC5B cells; 100 nM,3342.11 and 1356.99 and 4729.16
same,raw viability signal (Source Data Fig. 3b-c),ECLC5B cells; 1000 nM,2886.96 and 1354.63 and 4277.75
same,raw viability signal (Source Data Fig. 3b-c),ECLC5B cells; 10000 nM,1612.7 and 1276.67 and 2944.43
same,IC50,ECLC5B cells; [4],5 nM
same,raw viability signal (Source Data Fig. 3b-c),TT cells; 0.01 nM,21887.2 and 26414 and 26210.1 and 12272.3 and 26926.8
same,raw viability signal (Source Data Fig. 3b-c),TT cells; 0.1 nM,22325.8 and 26539.8 and 30465.8 and 11158.3 and 24677.4
same,raw viability signal (Source Data Fig. 3b-c),TT cells; 1 nM,20930 and 26176.3 and 29470 and 9614.13 and 22745.1
same,raw viability signal (Source Data Fig. 3b-c),TT cells; 10 nM,15380.3 and 24600.1 and 21198.9 and 8183.69 and 18775.6
same,raw viability signal (Source Data Fig. 3b-c),TT cells; 100 nM,9716.19 and 12690.1 and 13114.5 and 5163.1 and 15418.2
same,raw viability signal (Source Data Fig. 3b-c),TT cells; 1000 nM,9549.4 and 11696.3 and 12426 and 4648.23 and 14095
same,raw viability signal (Source Data Fig. 3b-c),TT cells; 10000 nM,9076.49 and 11812.8 and 14226.5 and 5846.11 and 12620.2
same,IC50,TT cells; [4],23 nM
same,Tumor Volume Mean,"[1]; Fig. 7c Ba/F3-KIF5B::RET G810R, selpercatinib 10 mg/kg BID, day 1",153.47
same,Tumor Volume Mean,"[1]; Fig. 7c Ba/F3-KIF5B::RET G810R, selpercatinib 10 mg/kg BID, day 4",195.84
same,Tumor Volume Mean,"[1]; Fig. 7c Ba/F3-KIF5B::RET G810R, selpercatinib 10 mg/kg BID, day 8",432.66
same,Tumor Volume Mean,"[1]; Fig. 7c Ba/F3-KIF5B::RET G810R, selpercatinib 10 mg/kg BID, day 11",585.46
same,Tumor Volume Mean,"[1]; Fig. 7c Ba/F3-KIF5B::RET G810R, selpercatinib 10 mg/kg BID, day 15",999.76
same,Tumor Volume Mean,"[1]; Fig. 7d Ba/F3-KIF5B::RET G810R, selpercatinib 30 mg/kg BID, day 1",157.6
same,Tumor Volume Mean,"[1]; Fig. 7d Ba/F3-KIF5B::RET G810R, selpercatinib 30 mg/kg BID, day 4",307.7
same,Tumor Volume Mean,"[1]; Fig. 7d Ba/F3-KIF5B::RET G810R, selpercatinib 30 mg/kg BID, day 8",440.3
same,Tumor Volume Mean,"[1]; Fig. 7d Ba/F3-KIF5B::RET G810R, selpercatinib 30 mg/kg BID, day 11",551.9
same,Tumor Volume Mean,"[1]; Fig. 7d Ba/F3-KIF5B::RET G810R, selpercatinib 30 mg/kg BID, day 15",795.7
same,median survival time,[2]; 10 mg per kg BID,99 d of treatment
same,Area Under Curve Mean,"[2]; Fig. 8e (middle panel) ECLC5 luminescence, 10 mg/kg BID",27186332000
same,Luminescence Data,"[2]; 10 mg/kg BID, treatment day 0 (=1)",1
same,Luminescence Data,"[2]; 10 mg/kg BID, treatment day 5, day 0 = 1, 10 mg/kg",1.5865 and 1.821 and 1.255 and 0.4814 and 3.25 and 0.8886
same,Luminescence Data,"[2]; 10 mg/kg BID, treatment day 12, day 0 = 1, 10 mg/kg",3.019 and 2.275 and 2.308 and 0.7742 and 2.674 and 1.142
same,Luminescence Data,"[2]; 10 mg/kg BID, treatment day 18, day 0 = 1, 10 mg/kg",4.468 and 13.8627 and 3.677 and 17.2275 and 4.61 and 2.3303
same,Luminescence Data,"[2]; 10 mg/kg BID, treatment day 26, day 0 = 1, 10 mg/kg",4.838 and 8.783 and 2.8 and 90.8154 and 2.049 and 2.4586
same,Luminescence Data,"[2]; 10 mg/kg BID, treatment day 33, day 0 = 1, 10 mg/kg",19.3932 and 14.9637 and 7.347 and 180.944 and 3.353 and 5.483
same,Luminescence Data,"[2]; 10 mg/kg BID, treatment day 40, day 0 = 1, 10 mg/kg",20.6751 and 16.1418 and 17.1097 and 476.137 and 5.8 and 4.798
same,Luminescence Data,"[2]; 10 mg/kg BID, treatment day 46, day 0 = 1, 10 mg/kg",53.1577 and 52.4694 and 35.0274 and 881.545 and 19.3617 and 18.0494
same,Luminescence Data,"[2]; 10 mg/kg BID, treatment day 55, day 0 = 1, 10 mg/kg",200.4 and 271.183 and 155.59 and 1935.62 and 78.0003 and 75.6827
same,Luminescence Data,"[2]; 10 mg/kg BID, treatment day 61, day 0 = 1, 10 mg/kg",323.18 and 414.363 and 232.604 and 1527.04 and 186.289 and 64.6294
same,Luminescence Data,"[2]; 10 mg/kg BID, treatment day 68, day 0 = 1, 10 mg/kg",561.802 and 676.257 and 207.714 and 1673.82 and 333.171 and 210.62
same,Luminescence Data,"[2]; 10 mg/kg BID, treatment day 75, day 0 = 1, 10 mg/kg",570.505 and 1484.59 and 792.807 and 4751.93 and 432.014 and 174.469
same,Luminescence Data,"[2]; 10 mg/kg BID, treatment day 82, day 0 = 1, 10 mg/kg",999.294 and 1867.47 and 955.043 and 3557.94 and 547.305 and 464.239
same,Area Under Curve Mean,"LUAD-0087AS2 PDX; Fig. 6a LUAD-0087AS2 tumor growth, selpercatinib 30 mg/kg BID",-1216
same,Tumor volume,LUAD-0087AS2 PDX; treatment day 0,118.47 (2×) and 116.65 and 114.49 (2×)
same,Tumor volume,LUAD-0087AS2 PDX; treatment day 3,107.17 (3×) and 103.77 and 112.73
same,Tumor volume,LUAD-0087AS2 PDX; treatment day 7,99.78 and 112.28 and 107.17 (2×) and 110.58
same,Tumor volume,LUAD-0087AS2 PDX; treatment day 10,95.03 (4×) and 96.62
same,Tumor volume,LUAD-0087AS2 PDX; treatment day 14,91.61 and 88.25 and 95.03 and 86.78 and 91.87
same,Tumor volume,LUAD-0087AS2 PDX; treatment day 17,103.77 and 88.25 and 107.17 and 96.62 and 91.87
same,Tumor volume,LUAD-0087AS2 PDX; treatment day 21,103.77 and 83.83 and 96.62 (2×) and 91.87
same,Tumor volume,LUAD-0087AS2 PDX; treatment day 24,72.18 (2×) and 83.97 and 80.89 and 74.9
same,Tumor volume,LUAD-0087AS2 PDX; treatment day 29,80.89 (2×) and 72.18 and 85.5 and 74.9
same,Tumor volume,LUAD-0087AS2 PDX; treatment day 32,80.89 (3×) and 75.04 and 70.69
same,Tumor volume,LUAD-0087AS2 PDX; treatment day 35,82.36 and 75.04 and 88.7 and 80.89 and 70.69
same,Tumor volume,LUAD-0087AS2 PDX; treatment day 38,79.29 and 75.04 and 88.7 and 80.89 and 70.69
same,Tumor volume,LUAD-0087AS2 PDX; treatment day 42,79.29 and 75.04 and 98.67 and 80.89 and 77.87
same,Tumor volume,LUAD-0087AS2 PDX; treatment day 45,79.29 and 72.18 and 98.67 and 68.07 and 73.54
same,"Papp at 3 h, 1 μM",[3],17 ×10⁻⁶ cm/s
